In test [1] the target is T1, human neutrophil elastase (HNE) (Homo sapiens, UniProt P08246).
T1 construct: purchased SERVA Electrophoresis GmbH, Heidelberg, Germany #20927.01
T1 sequence (P08246 30-267): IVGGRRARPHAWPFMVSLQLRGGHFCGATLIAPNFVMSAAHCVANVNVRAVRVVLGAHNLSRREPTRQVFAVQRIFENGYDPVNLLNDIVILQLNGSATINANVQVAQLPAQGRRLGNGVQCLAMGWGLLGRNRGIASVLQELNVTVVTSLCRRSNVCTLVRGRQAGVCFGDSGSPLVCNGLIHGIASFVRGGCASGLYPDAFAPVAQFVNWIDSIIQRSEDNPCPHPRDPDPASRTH
Put plainly: In vitro inhibition of HNE using a fluorogenic peptide substrate. The class given is biochemical. The conditions noted are these: substrate MeOSuc-Ala-Ala-Pro-Val-AMC, 384 MTP format. As for the experimental part: I. In vitro Enzyme Assays of Human Neutrophil Elastase (HNE)
assay buffer: 0.1 M HEPES-NaOH buffer pH 7.4, 0.5 M NaCl, 0.1% (w/v) bovine serum albumin;
suitable concentration (see below) of HNE (18 U/mg lyophil., #20927.01, SERVA Electrophoresis GmbH, Heidelberg, Germany) in assay buffer;
suitable concentration (see below) of substrate in assay buffer;
suitable concentration of test compounds diluted with assay buffer from a 10 mM stock solution in DMSO.
In vitro Inhibition of HNE Using a Fluorogenic Peptide Substrate (Continuous Read-out Signal, 384 MTP Assay Format):
In this protocol, the elastase substrate MeOSuc-Ala-Ala-Pro-Val-AMC (#324740, Calbiochem-Novabiochem Corporation, Merck KGaA, Darmstadt, Germany) is used. The test solution is prepared by mixing 10 μl of test compound dilution, 20 μl of HNE enzyme dilution (final concentration 8-0.4 μU/ml, routinely 2.1 μU/ml) and 20 μl of substrate dilution (final concentration 1 mM-1 μM, routinely 20 μM), respectively. The solution is incubated for 0-2 hrs at 37° C. (routinely one hour). The fluorescence of the liberated AMC due to the enzymatic reaction is measured at 37° C. (TECAN spectra fluor plus plate reader). The rate of increase of the fluorescence (ex. 395 nm, em. 460 nm) is proportional to elastase activity. IC50 values are determined by RFU-versus-[I] plots. Km and Km(app.) values are determined by Lineweaver-Burk plots and converted to Ki values by Dixon plots.

The test system of test [2] is human polymorphonuclear cells (PMNs). In words: In vitro PMN elastolysis assay. The class given is cell-based. The following applies: mean±s.e.m. How it is done:
In vitro PMN Elastolysis Assay:
This assay is used to determine the elastolytic potential of human polymorphonuclear cells (PMNs) and assess the proportion of degradation due to neutrophil elastase [cf. Z. W. She et al., Am. J Respir. Cell. Mol. Biol. 9, 386-392 (1993)].
Tritiated elastin, in suspension, is coated on to a 96 well plate at 10 μg per well. Test and reference [ZD-0892 (J. Med. Chem. 40, 1876-1885, 3173-3181 (1997), WO 95/21855) and α1 protease inhibitor (α1PI)] compounds are added to the wells at the appropriate concentrations. Human PMNs are separated from peripheral venous blood of healthy donors and resuspended in culture media. The neutrophils are added to the coated wells at concentrations ranging between 1×10^6 to 1×10^5 cells per well. Porcine pancreatic elastase (1.3 μM) is used as a positive control for the assay, and α1PI (1.2 μM) is used as the positive inhibitor of neutrophil elastase. The cellular, control is PMNs without compound at each appropriate cell density. The cells plus compounds are incubated in a humidified incubator at 37° C. for 4 hours. The plates are centrifuged to allow the harvest of cell supernatant only. The supernatant is transferred in 75 μl volumes to corresponding wells of a 96 well Lumaplate™ (solid scintillant containing plates). The plates are dried until no liquid is visible in the wells and read in a beta counter for 3 minutes per well. […]

Data on 8 compounds can be found in patent US8097629B2, “Dihydropyridinone derivatives” (Bayer Pharma Aktiengesellschaft, priority 2004, dated 2012).

The IC50 is the concentration at which inhibition is half-maximal. A lower IC50 goes with greater potency. Compound `COc1ccc(CN(C)C(=O)C2C(=O)N(c3cccc(C(F)(F)F)c3)C(C)=C(C(C)=O)C2c2ccc(C#N)cc2)cc1` (centres unmarked) [Example 19] showed an IC50 in test [1] of 0.04 µM. Still for that read-out and setting: next, `CC(=O)C1=C(C)N(c2cccc(C(F)(F)F)c2)C(=O)C(C(=O)N(C)c2cccc(C)c2)C1c1ccc(C#N)cc1` (centres unmarked) [Example 27]: 0.03 µM; `CC(=O)C1=C(C)N(c2cccc(C(F)(F)F)c2)C(=O)C(C(=O)N2CCN3CCCC3C2)C1c1ccc(C#N)cc1` (centres unmarked) [Example 34]: 0.06 µM.

In test [1], `CC(=O)C1=C(C)N(c2cccc(C(F)(F)F)c2)C(=O)C(C(=O)N2CCN(CCN3CCOCC3)CC2)C1c1ccc(C#N)cc1` (centres unmarked) [Example 45] returned an IC50 of 0.07 µM. On the same count and under the same terms, next, `CCOC(=O)N1CCN(C(=O)C2C(=O)N(c3cccc(C(F)(F)F)c3)C(C)=C(C(C)=O)C2c2ccc(C#N)cc2)CC1` (centres unmarked) [Example 54]: 0.06 µM. Same read-out and setting: next, `COCCOCCCNC(=O)C1C(=O)N(c2cccc(C(F)(F)F)c2)C(C)=C(C(C)=O)C1c1ccc(C#N)cc1` (centres unmarked) [Example 61]: 0.05 µM. The compound `COc1ccc(C(=O)N[C@H](C(=O)N2CCC[C@H]2C(=O)N[C@H](C(=O)C(F)(F)F)C(C)C)C(C)C)cc1` [ZD-0892] showed an IC50 in test [2] (n=2 different donors at 3.6×10^5 cells per well) of 0.0455 ± 0.00775 µM. With “α1PI: α1 protease inhibitor, used as the positive inhibitor of neutrophil elastase”, the “inhibition of 3H-elastin elastolysis” value in test [2] (at 1.2 μM, n=3 different donors at 3.6×10^5 cells per well) is 83.46±3.97%.
